This note sets out measurements from publication PMC8309042, “Antimelanogenesis Effects of Leaf Extract and Phytochemicals from Ceylon Olive (Elaeocarpus serratus) in Zebrafish Model” (Pharmaceutics, 2021).

Molecules are shown by their SMILES. Read-outs that look alike come from different tables or passages of the source. Where only a bound is given, the exact number is not on record here.

What is called IC50 is the concentration needed to halve the response being measured.

For one assay, the system named is zebrafish embryo. Put plainly: Antimelanogenesis effect in zebrafish embryos (melanin content by ImageJ). The format is in vivo, zebrafish (Danio rerio). The note with it: for IC50: Danio rerio, read-out: IC50 of melanogenesis inhibition activity in zebrafish; for effect on melanogenesis of zebrafish: concentration 50 μM. How it is done:
Zebrafish (Danio rerio) of wild-type AB strain were maintained in a healthy aquatic environment at 26–30 °C, with a 14:10 h light–dark cycle. After 9 h post fertilization (hpf), embryos were placed into a 24-well plate (3 embryos per well), treated with various final concentrations of specimens dissolved in 1% DMSO, and incubated at 28 °C for 48 h (at 57 hpf). The digital image of live zebrafish embryo was taken through a stereomicroscope (Olympus SZ61, Tokyo, Japan) at a total magnification of 40×; then, the melanin content of zebrafish embryo was analyzed by the ImageJ software. […] The number of replications was six.

A further assay relates to mushroom tyrosinase. Put plainly: Enzyme kinetic study (Lineweaver–Burk plot). The format is biochemical. The note with it: for Potential (trend of Vmax with concentration): 0-100 μg/mL; for Inhibition Type: L-tyrosine and L-DOPA substrates, Lineweaver–Burk. On the procedure:
Enzyme kinetic study is analyzed by the Lineweaver–Burk reciprocal plot of the reaction rate and the concentration of the substrate to evaluate the effect of the specimen on the affinity of the substrate and enzyme. […] The reaction was similar to antityrosinase assay as described above; 40 µL of specimen solution and 70 µL of potassium phosphate buffer (0.1 M, pH 6.8) were mixed, which was followed by adding 50 µL of 200 unit/mL tyrosinase, after incubation at 25 °C for 10 min.

The mark [1] stands for this setting: embryos treated 9 hpf to 57 hpf (48 h).

Turning to `OC[C@H]1O[C@@H](Oc2ccc(O)cc2)[C@H](O)[C@@H](O)[C@@H]1O` [Arbutin, arbutin, reference compound], in the assay with zebrafish embryo (setting [1]), the IC50 was 324 ± 19.8 µM. In addition, in the assay on zebrafish embryo, the “effect on melanogenesis of zebrafish” value was “could reduce the melanin formation”.

With `O=C(O)c1cc(O)c(O)c(O)c1` [Gallic acid], the “Potential (trend of Vmax with concentration)” value (“Potential” below) in the assay with mushroom tyrosinase (L-DOPA substrate) and in the assay on mushroom tyrosinase (L-Tyrosine substrate) was “―” each time. In addition, the entries for the “Inhibition Type” value in the assay on mushroom tyrosinase and in the assay on mushroom tyrosinase (listed as gallic acid) were “Competitive” and “competitive inhibitor”, respectively. In addition, the IC50 with zebrafish embryo (embryos treated 9 hpf to 57 hpf (48 h), dash defined in footnote) was more than 400 µM.

As to `COc1c(O)cc(-c2oc3cc(O)cc(O)c3c(=O)c2O)cc1O` [Mearnsetin, 4′-O-methyl myricetin], the “Potential” value with mushroom tyrosinase (L-DOPA substrate) and in the assay with mushroom tyrosinase (L-Tyrosine substrate) was “―” each time. The “Inhibition Type” value in the assay with mushroom tyrosinase is reported as “Competitive”; in the assay with mushroom tyrosinase (listed as mearnsetin) it was “competitive inhibitor”. In the assay on zebrafish embryo (setting [1]), the IC50 amounted to 121 ± 0.96 µM. Also, in the assay on zebrafish embryo, the “effect on melanogenesis of zebrafish” value is recorded as “better melanogenesis inhibition activity”.

With `O=c1c(O)c(-c2cc(O)c(O)c(O)c2)oc2cc(O)cc(O)c12` [Myricetin], the “Potential” value in the assay on mushroom tyrosinase (L-DOPA substrate) and with mushroom tyrosinase (L-Tyrosine substrate) was “↓” in each case. The “Inhibition Type” value in the assay on mushroom tyrosinase was “mixed-type inhibitor”. For the same molecule, in the assay on zebrafish embryo (setting [1]), the concentration for half-maximal inhibition (IC50) amounted to 350 ± 42.7 µM. Further, the “effect on melanogenesis of zebrafish” value with zebrafish embryo is “slight melanin inhibition effect”.

Consider `NC(=S)Nc1ccccc1` [PTU, 1-phenyl-2-thiourea, reference compound], for which the IC50 with zebrafish embryo (48 h) worked out at 26.3 ± 4.17 µM. Besides, the “effect on melanogenesis of zebrafish” value in the assay with zebrafish embryo is “could reduce the melanin formation”.
